How the values were obtained:
[1] = test system: barnyardgrass (Echinochloa crus-galli); test: Test A preemergence, visual injury rating 0-100 (0 no effect, 100 complete control); type: in vivo; settings: for Barnyardgrass plant response rating (0 to 100 scale): 125 g ai/ha
From the text: (§1) Seeds of plant species selected from barnyardgrass (Echinochloa crus-galli), kochia (Kochia scoparia), ragweed (common ragweed, Ambrosia elatior), ryegrass, Italian (Italian ryegrass, Lolium multiflorum), foxtail, giant (giant foxtail, Setaria faberii), foxtail, green (green foxtail, Setaria viridis), and pigweed (Amaranthus retroflexus) were planted into a blend of loam soil and sand and treated preemergence with a directed soil spray using test chemicals formulated in a non-phytotoxic solvent mixture which included a surfactant.
(§2) At the same time, plants selected from these weed species and also wheat (Triticum aestivum), corn (Zea mays), blackgrass (Alopecurus myosuroides), and galium (catchweed bedstraw, Galium aparine) were planted in pots containing the same blend of loam soil and sand and treated with postemergence applications of test chemicals formulated in the same manner. Plants ranged in height from 2 to 10 cm and were in the one- to two-leaf stage for the postemergence treatment. Treated plants and untreated controls were maintained in a greenhouse for approximately 10 days, after which time all treated plants were compared to untreated controls and visually evaluated for injury. […] A dash (-) response means no test result.

[2] = test system: foxtail, giant (giant foxtail, Setaria faberii); test: Test A preemergence, visual injury rating 0-100; type: in vivo; settings: for Foxtail, Giant plant response rating (0 to 100 scale): 125 g ai/ha
From the text: as §1, §2

[3] = test system: kochia (Kochia scoparia); test: Test A preemergence, visual injury rating 0-100; type: in vivo; settings: for Kochia plant response rating (0 to 100 scale): 125 g ai/ha
From the text: as §1, §2

[4] = test system: pigweed (Amaranthus retroflexus); test: Test A preemergence, visual injury rating 0-100; type: in vivo; settings: for Pigweed plant response rating (0 to 100 scale): 125 g ai/ha
From the text: as §1, §2

[5] = test system: ragweed (common ragweed, Ambrosia elatior); test: Test A preemergence, visual injury rating 0-100; type: in vivo; settings: for Ragweed plant response rating (0 to 100 scale): 125 g ai/ha
From the text: as §1, §2

[6] = test system: ryegrass, Italian (Italian ryegrass, Lolium multiflorum); test: Test A preemergence, visual injury rating 0-100; type: in vivo; settings: for Ryegrass, Italian plant response rating (0 to 100 scale): 125 g ai/ha
From the text: as §1, §2

[7] = test system: barnyardgrass (Echinochloa crus-galli); test: Test A postemergence, visual injury rating 0-100; type: in vivo; settings: 0 to 100 scale
From the text: as §1, §2

[8] = test system: blackgrass (Alopecurus myosuroides); test: Test A postemergence, visual injury rating 0-100; type: in vivo; settings: 0 to 100 scale
From the text: as §1, §2

[9] = test system: corn (Zea mays); test: Test A postemergence, visual injury rating 0-100; type: in vivo; settings: 0 to 100 scale
From the text: as §1, §2

[10] = test system: foxtail, giant (giant foxtail, Setaria faberii); test: Test A postemergence, visual injury rating 0-100; type: in vivo; settings: 0 to 100 scale
From the text: as §1, §2

[11] = test system: galium (catchweed bedstraw, Galium aparine); test: Test A postemergence, visual injury rating 0-100; type: in vivo; settings: 0 to 100 scale
From the text: as §1, §2

[12] = test system: kochia (Kochia scoparia); test: Test A postemergence, visual injury rating 0-100; type: in vivo; settings: 0 to 100 scale
From the text: as §1, §2

[13] = test system: pigweed (Amaranthus retroflexus); test: Test A postemergence, visual injury rating 0-100; type: in vivo; settings: 0 to 100 scale
From the text: as §1, §2

[14] = test system: ragweed (common ragweed, Ambrosia elatior); test: Test A postemergence, visual injury rating 0-100; type: in vivo; settings: 0 to 100 scale
From the text: as §1, §2

[15] = test system: ryegrass, Italian (Italian ryegrass, Lolium multiflorum); test: Test A postemergence, visual injury rating 0-100; type: in vivo; settings: 0 to 100 scale
From the text: as §1, §2

[16] = test system: wheat (Triticum aestivum); test: Test A postemergence, visual injury rating 0-100; type: in vivo; settings: 0 to 100 scale
From the text: as §1, §2

[17] = test system: ducksalad (Heteranthera limosa); test: Test B flooded paddy test, visual rating 0-100; settings: Flood, 250 g ai/ha, applied to paddy water, rated after 13 to 15 days
[18] = test system: barnyardgrass (Echinochloa crus-galli); test: Test B flooded paddy test, visual rating 0-100; settings: Flood, 250 g ai/ha, applied to paddy water, rated after 13 to 15 days
[19] = test system: rice (Oryza sativa); test: Test B flooded paddy test, visual rating 0-100 (0 no effect, 100 complete control); settings: Flood, 250 g ai/ha, applied to paddy water, rated after 13 to 15 days
[20] = 31 g ai/ha, 0 to 100 scale (0 no effect, 100 complete control), approx. 10 days

| SMILES | Barnyardgrass plant response rating (0 to 100 scale) [1] | Barnyardgrass plant response rating ([1]; 500 g ai/ha, 0 to 100 scale) | Foxtail, Giant plant response rating (0 to 100 scale) [2] | Kochia plant response rating (0 to 100 scale) [3] | Pigweed plant response rating (0 to 100 scale) [4] | Ragweed plant response rating (0 to 100 scale) [5] | Ryegrass, Italian plant response rating (0 to 100 scale) [6] | Barnyardgrass plant response rating ([7]; 125 g ai/ha) | Blackgrass plant response rating ([8]; 125 g ai/ha) | Corn plant response rating ([9]; 125 g ai/ha) | Foxtail, Giant plant response rating ([10]; 125 g ai/ha) | Galium plant response rating ([11]; 125 g ai/ha) | Kochia plant response rating ([12]; 125 g ai/ha) | Pigweed plant response rating ([13]; 125 g ai/ha) | Ragweed plant response rating ([14]; 125 g ai/ha) | Ryegrass, Italian plant response rating ([15]; 125 g ai/ha) | Wheat plant response rating ([16]; 125 g ai/ha) | Ducksalad plant response rating (0 to 100 scale) [17] | Barnyardgrass plant response rating (0 to 100 scale) [18] | Rice plant response rating (0 to 100 scale) [19] | other results |
| --- | --- | --- | --- | --- | --- | --- | --- | --- | --- | --- | --- | --- | --- | --- | --- | --- | --- | --- | --- | --- | --- |
| CC1=[N+]([O-])C(C(=O)Nc2cccc(F)c2F)C(c2ccc3c(c2)OCO3)C1 (racemic) [Compound 4] | 100 | 100 | 100 | 0 | 20 | 0 | 0 | 50 | 0 | 0 | 40 | 30 | 0 | 0 | 0 | 0 | 0 | 40 | 60 | 10 | Foxtail, Giant plant response rating ([2]; 500 g ai/ha, 0 to 100 scale): 100; Kochia plant response rating ([3]; 500 g ai/ha, 0 to 100 scale): 80; Pigweed plant response rating ([4]; 500 g ai/ha, 0 to 100 scale): 90; Ragweed plant response rating ([5]; 500 g ai/ha, 0 to 100 scale): 100; Ryegrass, Italian plant response rating ([6]; 500 g ai/ha, 0 to 100 scale): 20; Barnyardgrass plant response rating ([7]; 500 g ai/ha): 90; Blackgrass plant response rating ([8]; 500 g ai/ha): 20; Corn plant response rating ([9]; 500 g ai/ha): 60; Foxtail, Giant plant response rating ([10]; 500 g ai/ha): 90; Galium plant response rating ([11]; 500 g ai/ha): 60; Kochia plant response rating ([12]; 500 g ai/ha): 50; Pigweed plant response rating ([13]; 500 g ai/ha): 20; Ragweed plant response rating ([14]; 500 g ai/ha): 50; Ryegrass, Italian plant response rating ([15]; 500 g ai/ha): 40; Wheat plant response rating ([16]; 500 g ai/ha): 60 |
| CC1=[N+]([O-])C(C(=O)Nc2cccc(F)c2F)C(c2cccc(F)c2)C1 (racemic) [Compound 8] | 90 | 90 | 90 | 0 | 20 | 0 | 0 | 50 | 0 | 0 | 90 | 20 | 0 | 0 | 0 | 0 | 0 | 100 | 85 | 0 | Foxtail, Giant plant response rating ([2]; 500 g ai/ha, 0 to 100 scale): 90; Kochia plant response rating ([3]; 500 g ai/ha, 0 to 100 scale): 50; Pigweed plant response rating ([4]; 500 g ai/ha, 0 to 100 scale): 40; Ragweed plant response rating ([5]; 500 g ai/ha, 0 to 100 scale): 80; Ryegrass, Italian plant response rating ([6]; 500 g ai/ha, 0 to 100 scale): 40; Barnyardgrass plant response rating ([7]; 500 g ai/ha): 90; Blackgrass plant response rating ([8]; 500 g ai/ha): 30; Corn plant response rating ([9]; 500 g ai/ha): 0; Foxtail, Giant plant response rating ([10]; 500 g ai/ha): 90; Galium plant response rating ([11]; 500 g ai/ha): 60; Kochia plant response rating ([12]; 500 g ai/ha): 40; Pigweed plant response rating ([13]; 500 g ai/ha): 20; Ragweed plant response rating ([14]; 500 g ai/ha): 0; Ryegrass, Italian plant response rating ([15]; 500 g ai/ha): 50; Wheat plant response rating ([16]; 500 g ai/ha): 50 |
| CC1=[N+]([O-])C(C(=O)Nc2cccc(F)c2F)C(c2ccc(F)cc2)C1 (racemic) [Compound 9] | 90 |  | 90 | 0 | 30 | 90 | 0 | 40 | 0 | 0 | 50 | 30 | 0 | 20 | 0 | 0 | 0 | 100 | 85 | 0 | Barnyardgrass plant response rating [1, 20]: 30; Foxtail, Giant plant response rating [2, 20]: 70; Kochia plant response rating [3, 20]: 0; Pigweed plant response rating [4, 20]: 0; Ragweed plant response rating [5, 20]: 0; Ryegrass, Italian plant response rating [6, 20]: 0; Barnyardgrass plant response rating ([7]; 31 g ai/ha): 10; Blackgrass plant response rating ([8]; 31 g ai/ha): 0; Corn plant response rating ([9]; 31 g ai/ha): 0; Foxtail, Giant plant response rating ([10]; 31 g ai/ha): 20; Galium plant response rating ([11]; 31 g ai/ha): 0; Kochia plant response rating ([12]; 31 g ai/ha): 0; Pigweed plant response rating ([13]; 31 g ai/ha): 0; Ragweed plant response rating ([14]; 31 g ai/ha): 0; Ryegrass, Italian plant response rating ([15]; 31 g ai/ha): 0; Wheat plant response rating ([16]; 31 g ai/ha): 0 |
| CC1=[N+]([O-])C(C(=O)Nc2cccc(F)c2F)C(c2ccc(F)c(F)c2)C1 (racemic) [Compound 10] | 90 | 90 | 80 | 0 | 50 | 0 | 0 | 40 | 20 | 0 | 60 | 50 | 0 | 0 | 0 | 0 | 0 | 100 | 85 | 0 | Foxtail, Giant plant response rating ([2]; 500 g ai/ha, 0 to 100 scale): 90; Kochia plant response rating ([3]; 500 g ai/ha, 0 to 100 scale): 60; Pigweed plant response rating ([4]; 500 g ai/ha, 0 to 100 scale): 60; Ragweed plant response rating ([5]; 500 g ai/ha, 0 to 100 scale): 90; Ryegrass, Italian plant response rating ([6]; 500 g ai/ha, 0 to 100 scale): 60; Barnyardgrass plant response rating ([7]; 500 g ai/ha): 90; Blackgrass plant response rating ([8]; 500 g ai/ha): 30; Corn plant response rating ([9]; 500 g ai/ha): 50; Foxtail, Giant plant response rating ([10]; 500 g ai/ha): 90; Galium plant response rating ([11]; 500 g ai/ha): 60; Kochia plant response rating ([12]; 500 g ai/ha): 20; Pigweed plant response rating ([13]; 500 g ai/ha): 20; Ragweed plant response rating ([14]; 500 g ai/ha): 20; Ryegrass, Italian plant response rating ([15]; 500 g ai/ha): 0; Wheat plant response rating ([16]; 500 g ai/ha): 70 |

— patent publication US11498899B2, “Nitrone herbicides” (FMC Corporation, priority 2016, dated 2022)
